Each structure is given as a SMILES string. Values joined by “and” are separate entries in the source; they are usually repeats but may differ in a detail not shown here. Equal entries are not always repeated.

The test system of assay [1] is NCI-H295R. The assay can be described thus: maximal response (efficacy) relative to DMSO (0%) and doxorubicin (-100%); higher = less growth inhibition. The conditions noted are these: 48 h.
The test system of assay [2] is NCI-H295R. The experiment in a line: IC50 (antiproliferative, ATP content). The settings on record: 48 h.

As usually defined, the IC50 is the concentration that gives 50% inhibition. `CC1=CC(=O)c2ccccc2C1=O`: the maximal response in the assay with NCI-H295R [1] was -158%. This compound also returned an IC50 with NCI-H295R [2] of 23.7 µM.
For `CC[C@@H](C(=O)[C@@H](C)[C@@H](O)[C@H](C)CCc1ccc(C)c(O)c1C(=O)[O-])[C@H]1O[C@](CC)([C@H]2CC[C@](O)(CC)[C@H](C)O2)C[C@@H]1C.[Na+]` the same measures were -159% and 23.7 µM.
For `CC(=O)[O][Hg][c]1ccccc1` the same measures were -126% and 2.99 µM.
`C/C=C(/C(=C/C)c1ccc(O)cc1)c1ccc(O)cc1`: the maximal response in the assay on NCI-H295R [1] is -68.5%. In the assay with NCI-H295R [2], this compound gave an IC50 of 4.53 µM.
Taken in the same sequence, the figures for `O=C3O[C@@H]2[C@@H]1O[C@@](C)1CC/C=C(C)/CC[C@H]2[C@@]3=C` were -138% and 18.8 µM.
`[O-]S(C1=C(O)C(\C(C4=CC=C(N(C)C)C=C4)=C(C=C2)/C=C/C2=[N+](C)\C)=C(C=C3)C(C=C3S([O-])(=O)=O)=C1)(=O)=O.[Na+]`: the maximal response in the assay with NCI-H295R [1] was -103%. Moreover, the IC50 with NCI-H295R [2] is 11.9 µM.
Taken in the same sequence, the figures for `[Cl-].[Cl-].[Hg+2]` were -127% and 11.9 µM.
Turning to `CN(C)C(=O)CCSC(SCCC(=O)[O-])c1cccc(/C=C/c2ccc3ccc(Cl)cc3n2)c1.[Na+]` (centres undefined), the maximal response in the assay on NCI-H295R [1] was -77.8%. Besides, the 50% inhibitory concentration (IC50) in the assay on NCI-H295R [2] amounted to 26.6 µM.
Taken in the same sequence, the figures for `CCCCCCCCN[C@H](C)C(O)c1ccc(SC(C)C)cc1` (some centres undefined) were -137% and 21.1 µM.
For the compound `[H][C@]1(CC3)[C@]([C@H]5C[C@@H]4[C@@](C=C6)=COC6=O)(O5)[C@]4(C)CC[C@]([C@]2(C)[C@@]3([H])C[C@@H](O)CC2)1[H]`, the maximal response in the assay with NCI-H295R [1] was -105%. For the same compound, the IC50 in the assay on NCI-H295R [2] is 6.68 µM.
For `C[C@H]1CC[C@@H]2[C@@H](C)[C@H]3[C@H](C[C@H]4[C@@H]5CC=C6CC(O[C@@H]7O[C@H](CO)[C@H](O)[C@H](O[C@@H]8O[C@H](CO)[C@@H](O)[C@H](O)[C@H]8O)[C@H]7O[C@H]7O[C@@H](C)[C@H](O)[C@@H](O)[C@H]7O)CC[C@]6(C)[C@H]5CC[C@]34C)N2C1` (some centres undefined) the same measures were -135% and 18.8 µM.
Taken in the same sequence, the figures for `N=C(N)NN=C(/C=C/c1ccc([N+](=O)[O-])o1)/C=C/c1ccc([N+](=O)[O-])o1` were -124% and 5.31 µM.
Taken in the same sequence, the figures for `Oc1c(Cl)cc(Cl)c(Cl)c1Cc1c(O)c(Cl)cc(Cl)c1Cl` were -121% and 15 µM.
Consider `O=C1NCN(c2ccccc2)C12CCN(CCCC(c1ccc(F)cc1)c1ccc(F)cc1)CC2`, for which the maximal response with NCI-H295R [1] is -137%. For the same compound, the IC50 in the assay with NCI-H295R [2] is 11.9 µM.
For `C[CH2][Hg][S]c1ccccc1C(=O)[O-].[Na+]` the same measures were -124% and 2.66 µM.
Taken in the same sequence, the figures for `Clc1ccc(COC(Cn2ccnc2)c2ccc(Cl)cc2Cl)cc1.O=[N+]([O-])O` (centres undefined) were -149% and 26.6 µM.
Taken in the same sequence, the figures for `O=c1c(-c2ccccc2)c1-c1ccccc1` were -142% and 18.8 µM.
Consider `C[C@@H](C)[C@H]1C3=C(C=C(F)C=C3)CC[C@@](OC(COC)=O)1CCN(C)CCCC4=NC2=C(N4)C=CC=C2.Cl.Cl`, for which the maximal response in the assay on NCI-H295R [1] is -126%. The same compound gave an IC50 in the assay with NCI-H295R [2] of 10.6 µM.
For `C[n+]1cc2c3c(ccc2c2ccc4cc5c(cc4c21)OCO5)OCO3` the same measures were -119% and 4.73 µM.
Regarding `O[C@]([C@@]([H])2CC3)(CC[C@@H]4[C@@](CO5)=CC5=O)[C@]4(C)C[C@@H](O)[C@]2([H])[C@]1(CO)[C@@]3(O)C[C@@H](O[C@H]6[C@H](O)[C@H](O)[C@@H](O)[C@H](C)O6)C[C@H]1O`, the maximal response with NCI-H295R [1] was -111% and -116%. In the assay with NCI-H295R [2], the IC50 was 0.0841 µM and 0.106 µM.
For `[Na+].[Na+].[O-]C(=O)c4c(Cl)c(Cl)c(Cl)c(Cl)c4C=2c3cc(I)c([O-])c(I)c3OC=1C=2\C=C(\I)C(=O)C=1I`, the maximal response in the assay with NCI-H295R [1] is -153%. This compound had an IC50 in the assay on NCI-H295R [2] of 23.7 µM.
For `Cc1c2oc3c(C)ccc(C(=O)N[C@@H]4C(=O)N[C@H](C(C)C)C(=O)N5CCC[C@H]5C(=O)N(C)CC(=O)N(C)[C@@H](C(C)C)C(=O)O[C@H]4C)c3nc-2c(C(=O)N[C@@H]2C(=O)N[C@H](C(C)C)C(=O)N3CCC[C@H]3C(=O)N(C)CC(=O)N(C)[C@@H](C(C)C)C(=O)O[C@H]2C)c(N)c1=O`, in the assay with NCI-H295R [1], the maximal response is -113%. Further, the IC50 with NCI-H295R [2] was 0.376 µM.
Consider `Cl.Cl.Fc1ccc(C(OCCN2CCN(CCCc3ccccc3)CC2)c2ccc(F)cc2)cc1`, for which the maximal response in the assay on NCI-H295R [1] was -154%. The IC50 in the assay on NCI-H295R [2] was 23.7 µM.
Taken in the same sequence, the figures for `C[C@H]1CC[C@]2(NC1)O[C@H]1C[C@H]3[C@@H]4CC[C@H]5C[C@@H](O[C@@H]6O[C@H](CO)[C@H](O[C@@H]7O[C@H](CO)[C@@H](O)[C@H](O[C@@H]8OC[C@@H](O)[C@H](O)[C@H]8O)[C@H]7O[C@@H]7O[C@H](CO)[C@@H](O)[C@H](O)[C@H]7O)[C@H](O)[C@H]6O)CC[C@]5(C)[C@H]4CC[C@]3(C)[C@H]1[C@@H]2C` were -127% and 1.88 µM.
Taken in the same sequence, the figures for `CN(Cc1cnc2nc(N)nc(N)c2n1)c1ccc(C(=O)N[C@@H](CCC(=O)O)C(=O)O)cc1` were -74.9% and 0.0188 µM.
For `O=C(Nc1cccc(C(F)(F)F)c1)c1cc(Br)cc(Br)c1O` the same measures were -140% and 5.96 µM.
Take `Cc1cc(-c2ccc(N=Nc3c(S(=O)(=O)[O-])cc4cc(S(=O)(=O)[O-])cc(N)c4c3O)c(C)c2)ccc1N=Nc1c(S(=O)(=O)[O-])cc2cc(S(=O)(=O)[O-])cc(N)c2c1O.[Na+].[Na+].[Na+].[Na+]`: the maximal response with NCI-H295R [1] is -131%. In the assay on NCI-H295R [2], this compound gave a half-maximal inhibitory concentration (IC50) of 11.9 µM.
For `O=C\1OC/C(=C/1)[C@H]2CC[C@@]9(O)[C@]2(C)[C@H](O)C[C@H]3[C@H]9CC[C@@H]4C[C@H](CC[C@]34C)O[C@@H]8O[C@H](C)[C@@H](O[C@@H]7O[C@H](C)[C@@H](O[C@@H]6O[C@H](C)[C@@H](O[C@@H]5O[C@H](CO)[C@@H](O)[C@H](O)[C@H]5O)[C@@H](O)C6)[C@@H](O)C7)[C@@H](O)C8` the same measures were -110% and 0.335 µM.
Taken in the same sequence, the figures for `CCCCCCCC/C=C\CCCCCCCC(=O)NCc1ccc(O)c(OC)c1` were -122% and 8.41 µM.
`O=C1C2CC=CCC2C(=O)N1SC(Cl)(Cl)Cl` (centres undefined): in the assay on NCI-H295R [1], the maximal response was -105%. The same compound had an IC50 in the assay with NCI-H295R [2] of 16.8 µM.
Taken in the same sequence, the figures for `Oc1c(Br)cc(Br)c2cccnc12` were -80.8% and 6.68 µM.
As for `COC(COC(N)=O)C1=C(N2CC2)C(=O)C(C)=C(N2CC2)C1=O` (centres undefined), the maximal response in the assay on NCI-H295R [1] was -120%. For the same compound, the 50% inhibitory concentration (IC50) in the assay on NCI-H295R [2] came out at 0.75 µM.
Taken in the same sequence, the figures for `CCc1oc2ccccc2c1C(=O)c1cc(I)c(O)c(I)c1` were -101% and 7.5 µM.
Consider `Cc1cc(C2CCCCC2)n(O)c(=O)c1.NCCO`, for which the maximal response in the assay with NCI-H295R [1] is -61.1%. In the assay on NCI-H295R [2], this compound gave an IC50 of 0.64 µM.
Taken in the same sequence, the figures for `O=C\1OC/C(=C/1)[C@H]8CC[C@@]7(O)[C@]8(C)CC[C@H]2[C@H]7CC[C@@H]3C[C@H](CC[C@]23C)O[C@@H]6O[C@H](C)[C@@H](O[C@H]5C[C@H](O)[C@H](O[C@H]4C[C@H](O)[C@H](O)[C@@H](C)O4)[C@@H](C)O5)[C@@H](O)C6` were -109% and 0.0841 µM.
For `COc1cc2c(cc1O)CCN[C@]21CS[C@@H]2c3c(OC(C)=O)c(C)c4c(c3[C@H](COC1=O)N1[C@@H]2[C@H]2c3c(cc(C)c(OC)c3O)C[C@@H]([C@@H]1O)N2C)OCO4` the same measures were -117% and 0.0094 µM.
In the case of `CC[C@@H](C(=O)[C@@H](C)[C@@H](O)[C@H](C)[C@@H]1O[C@@H]([C@@H](CC)C(=O)[O-])CC[C@@H]1C)[C@H]1O[C@]2(C=C[C@@H](O)[C@]3(CC[C@@](C)([C@H]4CC[C@](O)(CC)[C@H](C)O4)O3)O2)[C@H](C)C[C@@H]1C.[Na+]`, the maximal response in the assay with NCI-H295R [1] is -80.1%. The IC50 in the assay on NCI-H295R [2] was found to be 13.3 µM.
Take `C[n+]1c2cc(N)ccc2cc2ccc(N)cc21.Nc1ccc2cc3ccc(N)cc3nc2c1.[Cl-]`: the maximal response in the assay on NCI-H295R [1] was -168%. The half-inhibitory concentration (IC50) with NCI-H295R [2] was 21.1 µM.
For `[Cl-].C/[N+](C)=C1\C=C/C(C=C1)=C(\c2ccc(cc2)N(C)C)c3ccc(cc3)N(C)C` the same measures were -130% and 11.9 µM.
For `COc1cc([C@@H]2c3cc4c(cc3C(O[C@@H]3O[C@@H]5COC(c6cccs6)O[C@H]5[C@H](O)[C@H]3O)C3COC(=O)[C@@H]32)OCO4)cc(OC)c1O` (some centres undefined) the same measures were -94.9% and 8.41 µM.
Taken in the same sequence, the figures for `CC(C)(C)c1cc(O)ccc1O` were -139% and 16.8 µM.
Turning to `CS(=O)(=O)O.Cc1ccc(NC(=O)c2ccc(CN3CCN(C)CC3)cc2)cc1Nc1nccc(-c2cccnc2)n1`, the maximal response in the assay on NCI-H295R [1] was -61.7%. The IC50 with NCI-H295R [2] was 18.8 µM.
Taken in the same sequence, the figures for `Nc1nc(N)c2nc(-c3ccccc3)c(N)nc2n1` were -89.3% and 2.66 µM.
Regarding `O=C(Nc1ccc([N+](=O)[O-])cc1Cl)c1cc(Cl)ccc1O`, the maximal response with NCI-H295R [1] is -94.3%. In the assay on NCI-H295R [2], this compound came in with a half-inhibitory concentration (IC50) of 0.531 µM.
For `COc1cc(C(=O)NS(=O)(=O)c2ccccc2C)ccc1Cc1cn(C)c2ccc(NC(=O)OC3CCCC3)cc12` the same measures were -134% and 21.1 µM.
Taken in the same sequence, the figures for `Oc1cc[c]([Hg][Cl])cc1` were -130% and 2.66 µM.
Taken in the same sequence, the figures for `COc1ccc(CN2CCN(C(c3ccc(F)cc3)c3ccc(F)cc3)CC2)c(OC)c1OC` were -95.1% and 21.1 µM.
